What was measured:
Aβ40 = target: T1, Aβ40 (Homo sapiens, UniProt P05067); experiment: ITC binding of 6 with Aβ40
T1 construct: Ab40 ([…]-; purchased Peptide Institute, Inc. (Osaka, Japan)
Procedure: (§1) Distinct reactivities of 6 with metal-free Aβ and metal–Aβ were supported by various biophysical approaches. […] In the absence of Aβ, an increase or decrease in the absorption of the peaks at ca. 265, 300, 340, and 410 nm was monitored for 24 h (Fig. S18 ^†), which could be resulted from the oxidation of 6 in the presence of O2.[69] These spectral changes were accelerated upon incubation with Aβ, indicative of its impact on the oxidative modification of 6. Such transformation of 6 was also indicated in the presence of Cu(II) or Zn(II) with and without Aβ. To probe the interaction of 6 with Aβ, their binding properties were analyzed by isothermal titration calorimetry (ITC). For the association between 6 and Aβ, we recorded the heat change upon constant titration of the flavonoid into the solution of Aβ, where the dilution heat was also measured to avoid the heat change induced by its addition into the buffered solution. […] Thus, 6 can bind to Aβ with a micromolar binding affinity. […]
(§2) ITC. The solutions of Ab and 6 were subjected to degassing under vacuum for 3 min prior to loading into the instrument. […] […] The initial delay and the reference power were 60 s and 10 µcal/s, respectively. Dilution heat of 6 only was also measured under the same experimental conditions.
(§3) The ITC thermogram and binding isotherm were shown after the subtraction of the dilution heat.
The binding isotherm after baseline correction was fitted to the one-set-of-sites binding model using the MicroCal Origin software (version 7.0). […]

Aβ42 = target: T2, Aβ42 (Homo sapiens, UniProt P05067); experiment: ITC binding of 6 with Aβ42
T2 construct: purchased Peptide Institute, Inc. (Osaka, Japan)
T2 sequence (P05067 672-713 limits assumed): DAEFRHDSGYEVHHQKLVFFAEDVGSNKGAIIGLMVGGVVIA
Procedure: as §1, §2, §3
The binding isotherm after baseline correction was fitted to the one-set-of-sites binding model using the MicroCal Origin software (version 7.0).
Expression and Purification of 15N-labeled Recombinant Ab42. 15N-labeled recombinant Ab42 was expressed in E. coli and purified as previously reported.27 Briefly, the DNA sequence coding the human Ab42 peptide was artificially constructed using codons preferred by E. coli with an extra Met residue at the N-terminal of the peptide. The DNA construct was inserted into pAED4 vector28 and the E. coli BL21 (DE3) pLysS strain (Novagen, Inc., Madison, WI, USA) was utilized in the protein expression. Transformed cells were incubated in LB media containing ampicillin and chloramphenicol until the cultures reach 3.5 McFarland turbidity. Cells were then harvested by centrifugation and the cell pellets were resuspended in M9 minimal media containing isotopically labeled 1 g/L 15N ammonium chloride, and induced by addition of 1 mM IPTG for 4 h. The peptide formed inclusion bodies in the bacterial cells. The purified inclusion bodies were dissolved in 20 mM NaOH and the peptide was further purified by repeated cycles of amyloid growth at low pH

T1 sequence (P05067 672-711 limits assumed): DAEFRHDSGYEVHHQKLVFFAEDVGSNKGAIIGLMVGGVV

SMILES: O=c1c(-c2ccc(O)c(O)c2)coc2cc(O)c(O)c(O)c12 [compound 6, 3-(3,4-dihydroxyphenyl)-5,6,7-trihydroxy-4H-chromen-4-one]
- Kd (Aβ40; one-set-of-sites model, 10 °C, read-out: Binding affinity): ~20.5 µM
- TΔS (Aβ40; pH 7.4, 10 °C): 5.4 (±0.7) kcal mol^−1
- ΔG (Aβ40; pH 7.4, 10 °C): −6.0 (±0.5) kcal mol^−1
- ΔH (Aβ40; pH 7.4, 10 °C): −0.6 (±0.5) kcal mol^−1
- Kd (Aβ42; one-site model, 10 °C, read-out: Binding affinity): ~19.5 µM
- TΔS (Aβ42; pH 7.4, 10 °C): 5.6 (±0.1) kcal mol^−1
- ΔG (Aβ42; pH 7.4, 10 °C): −6.1 (±0.1) kcal mol^−1
- ΔH (Aβ42; pH 7.4, 10 °C): −0.5 (±0.1) kcal mol^−1
